Target: T1, hT1R1/hT1R3 umami receptor (Homo sapiens, UniProt Q7RTX0+Q7RTX1)
T1 construct: expressed in transfected cells; host or cells: HEK293 derivative stably expressing Gα15, clone I-17, expression induced with mifepristone
T1 sequence (Q7RTX1 21-841): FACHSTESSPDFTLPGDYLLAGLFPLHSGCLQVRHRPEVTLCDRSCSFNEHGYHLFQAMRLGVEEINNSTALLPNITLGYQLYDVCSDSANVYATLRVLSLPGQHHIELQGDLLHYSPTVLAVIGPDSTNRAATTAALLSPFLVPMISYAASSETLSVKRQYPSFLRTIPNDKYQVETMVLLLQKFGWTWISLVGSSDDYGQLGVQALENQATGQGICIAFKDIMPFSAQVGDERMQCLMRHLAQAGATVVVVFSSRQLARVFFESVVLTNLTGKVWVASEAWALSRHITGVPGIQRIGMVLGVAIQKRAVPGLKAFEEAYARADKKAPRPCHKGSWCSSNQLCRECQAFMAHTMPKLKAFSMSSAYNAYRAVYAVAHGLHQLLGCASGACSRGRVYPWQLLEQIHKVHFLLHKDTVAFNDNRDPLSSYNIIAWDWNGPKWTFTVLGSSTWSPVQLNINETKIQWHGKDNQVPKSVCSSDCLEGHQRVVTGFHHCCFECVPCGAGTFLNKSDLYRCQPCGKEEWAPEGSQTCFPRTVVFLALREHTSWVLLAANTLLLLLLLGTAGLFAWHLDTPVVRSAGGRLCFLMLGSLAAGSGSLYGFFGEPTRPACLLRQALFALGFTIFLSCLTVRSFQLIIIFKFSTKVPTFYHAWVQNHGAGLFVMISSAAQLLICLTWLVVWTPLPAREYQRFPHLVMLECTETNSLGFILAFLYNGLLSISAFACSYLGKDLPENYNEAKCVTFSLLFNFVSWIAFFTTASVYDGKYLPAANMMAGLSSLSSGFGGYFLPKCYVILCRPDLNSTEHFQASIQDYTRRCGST
T1 sequence (Q7RTX0 21-852): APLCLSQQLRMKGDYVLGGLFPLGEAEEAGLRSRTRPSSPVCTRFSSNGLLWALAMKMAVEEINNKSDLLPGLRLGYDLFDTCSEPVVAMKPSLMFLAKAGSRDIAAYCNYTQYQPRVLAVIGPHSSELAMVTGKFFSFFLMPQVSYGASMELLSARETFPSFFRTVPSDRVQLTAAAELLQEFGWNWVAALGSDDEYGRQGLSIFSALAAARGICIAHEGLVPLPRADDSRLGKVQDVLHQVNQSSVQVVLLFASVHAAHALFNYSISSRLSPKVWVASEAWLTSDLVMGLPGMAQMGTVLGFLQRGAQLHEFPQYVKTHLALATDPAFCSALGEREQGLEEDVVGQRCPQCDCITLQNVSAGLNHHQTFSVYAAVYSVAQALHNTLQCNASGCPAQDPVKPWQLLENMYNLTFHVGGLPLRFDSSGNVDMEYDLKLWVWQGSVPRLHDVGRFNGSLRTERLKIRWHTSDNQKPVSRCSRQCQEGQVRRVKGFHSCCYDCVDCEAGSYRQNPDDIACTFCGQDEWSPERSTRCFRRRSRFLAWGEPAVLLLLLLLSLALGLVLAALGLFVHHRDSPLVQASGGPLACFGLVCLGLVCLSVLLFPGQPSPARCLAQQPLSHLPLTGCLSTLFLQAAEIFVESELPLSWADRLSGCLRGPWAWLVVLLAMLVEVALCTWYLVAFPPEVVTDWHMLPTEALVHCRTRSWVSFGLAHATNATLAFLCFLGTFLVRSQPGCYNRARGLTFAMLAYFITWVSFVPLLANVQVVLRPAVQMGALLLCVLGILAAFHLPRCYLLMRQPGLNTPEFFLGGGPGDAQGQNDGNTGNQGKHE
Assay: In vitro hT1R1/hT1R3 umami taste receptor activation assay (FLIPR, dose response)
Assay type: cell-based
Conditions: Table C, Umami Ureas; read-out: Umami EC50

SMILES	EC50 [µM]
COc1ccccc1NC(=O)NC(C(C)C)C(C)C [Example C17, 1-(2,4-dimethylpentan-3-yl)-3-(2-methoxyphenyl)urea]	0.24
CCCC(CCC)NC(=O)Nc1ccccc1SC [Example C18, 1-(heptan-4-yl)-3-(2-(methylthio)phenyl)urea]	0.26
CC(C)C(NC(=O)Nc1ccc2c(c1)OCO2)C(C)C [Example C19, 1-(benzo[d][1,3]dioxol-5-yl)-3-(2,4-dimethylpentan-3-yl)urea]	0.32
CCCC(CCC)NC(=O)Nc1ccc(C)cc1Cl [Example C20, 1-(2-chloro-4-methylphenyl)-3-(heptan-4-yl)urea]	0.09
CCCC(CCC)NC(=O)Nc1ccc(OC)cc1Cl [Example C21, 1-(2-chloro-4-methoxyphenyl)-3-(heptan-4-yl)urea]	0.11
CCCC(CCC)NC(=O)Nc1ccc(Cl)cc1Cl [Example C22, 1-(2,4-dichlorophenyl)-3-(heptan-4-yl)urea]	0.18
Cc1ccc(NC(=O)N[C@@H](C)C(C)C)c(Cl)c1 [Example C23, (S)-1-(2-chloro-4-methylphenyl)-3-(3-methylbutan-2-yl)urea]	0.38
CCC(NC(=O)Nc1ccc(C)cc1Cl)c1ccccc1 (stereo not drawn) [Example C24, 1-(2-chloro-4-methylphenyl)-3-(1-phenylpropyl)urea]	0.48
CCC(CC(C)C)NC(=O)Nc1ccc2c(c1)OCO2 (stereo not drawn) [Example C25, 1-(benzo[d][1,3]dioxol-5-yl)-3-(5-methylhexan-3-yl)urea]	0.48
CCCC(CCC)NC(=O)Nc1ccccc1OC [Example C26, 1-(heptan-4-yl)-3-(2-methoxyphenyl)urea]	0.49
CCCC(CCC)NC(=O)Nc1ccc2c(c1)OCO2 [Example C27, 1-(benzo[d][1,3]dioxol-5-yl)-3-(heptan-4-yl)urea]	0.54
CCCC(NC(=O)Nc1ccc2c(c1)OCO2)C(C)C (stereo not drawn) [Example C28, 1-(benzo[d][1,3]dioxol-5-yl)-3-(2-methylhexan-3-yl)urea]	0.57
CCCC(CCC)NC(=O)Nc1ccc(C)cc1C [Example C29, 1-(2,4-dimethylphenyl)-3-(heptan-4-yl)urea]	0.79
C=Cc1ccccc1NC(=O)NC(CCC)CCC [Example C30, 1-(heptan-4-yl)-3-(2-vinylphenyl)urea]	0.79

Same assay, conditions: Table D, Umami Acrylamides; read-out: Umami EC50

SMILES	EC50 [µM]
COc1ccc(/C=C/C(=O)NC(C(C)C)C(C)C)cc1 [Example D1, (E)-N-(2,4-dimethylpentan-3-yl)-3-(4-methoxyphenyl)acrylamide]	0.29
COC(=O)[C@@H](CC(C)C)NC(=O)/C=C/c1ccc(OC)cc1 [Example D2, (R,E)-methyl 2-(3-(4-methoxyphenyl)acrylamido)-4-methylpentanoate]	0.32
CCCCC(NC(=O)/C=C/c1ccc(OC)cc1)C(=O)OC (stereo not drawn) [Example D3, (E)-methyl 2-(3-(4-methoxyphenyl)acrylamido)hexanoate]	0.63
CC(CCc1ccccc1)NC(=O)/C=C/c1cccs1 (stereo not drawn) [Example D4, N-(1-Methyl-3-phenyl-propyl)-3-thiophen-2-yl-acrylamide]	0.69
CCCC(CCC)NC(=O)/C=C/c1ccc(OC)cc1 [Example D5, (E)-N-(heptan-4-yl)-3-(4-methoxyphenyl)acrylamide]	0.72
CCCC(CCC)NC(=O)/C=C/c1cccs1 [Example D6, N-(1-Propyl-butyl)-3-thiophen-2-yl-acrylamide]	0.75
CCC(CC)NC(=O)/C=C/c1ccc(OC)cc1 [Example D7, (E)-3-(4-methoxyphenyl)-N-(pentan-3-yl)acrylamide]	0.82
CCOc1ccc(/C=C/C(=O)N[C@@H](COC)CC(C)C)cc1 [Example D8, (R,E)-3-(4-ethoxyphenyl)-N-(1-methoxy-4-methylpentan-2-yl)acrylamide]	0.94
CCC/C=C\C(=O)NC(CCC)CCC [Example D9, (Z)-N-(heptan-4-yl)hex-2-enamide]	0.98
COC(=O)[C@@H](CC(C)C)NC(=O)/C=C/c1ccsc1 [Example D10, (R,E)-methyl 4-methyl-2-(3-(thiophen-3-yl)acrylamido)pentanoate]	1.09
COC(=O)[C@@H](CC(C)C)NC(=O)/C=C/c1ccccc1 [Example D11, (R)-methyl 2-cinnamamido-4-methylpentanoate]	1.17
CC(C)/C=C/C(=O)NC1CCCCC1C (stereo not drawn) [Example D12, (E)-4-methyl-N-(2-methylcyclohexyl)pent-2-enamide]	1.28
CCOc1ccc(/C=C/C(=O)NC(C)CC)cc1 (stereo not drawn) [Example D13, (E)-N-sec-butyl-3-(4-ethoxyphenyl)acrylamide]	1.31
CCC(COC)NC(=O)/C=C/c1ccc(OC)cc1 (stereo not drawn) [Example D14, (E)-N-(1-methoxybutan-2-yl)-3-(4-methoxyphenyl)acrylamide]	1.43
CCCC(CCC)NC(=O)/C=C/c1ccsc1 [Example D15, (E)-N-(heptan-4-yl)-3-(thiophen-3-yl)acrylamide]	1.54
COc1ccc(/C=C/C(=O)NC(C)CCc2ccccc2)cc1OC (stereo not drawn) [Example D16, (E)-3-(3,4-dimethoxyphenyl)-N-(4-phenylbutan-2-yl)acrylamide]	1.56

Same assay, conditions: opposite enantiomers compared; read-out: AFFINITY FOR T1R1/T1R3 SAVORY RECEPTOR EC50 UM

SMILES	EC50 [µM]
COc1ccc(C(=O)N[C@H]2CCc3ccccc32)cc1C [drawing 26, (S)-N-(2,3-dihydro-1H-inden-1-yl)-4-methoxy-3-methylbeuzamide]	0.08
CCOc1ccc(C(=O)N[C@H]2CCc3ccccc32)cc1C [drawing 28, (S)-N-(2,3-dihydro-1H-inden-1-yl)-4-ethoxy-3-methylbenzamide]	0.85
COc1cccc(C(=O)N[C@@H]2CCCc3ccccc32)c1N [drawing 29, (R)-2-amino-3-methoxy-N-(1,2,3,4-tetrahydronaphthalen-1-yl)benzamide]	0.09

From patent publication US20060045953A1 (priority 2004, published 2006)
